Laboratory results published in publication PMC2936419, “Engineering of N. benthamiana L. plants for production of N-acetylgalactosamine-glycosylated proteins - towards development of a plant-based platform for production of protein therapeutics with mucin type O-glycosylation” (BMC Biotechnology, 2010).

Molecular target: T1, human GalNAc-T2 (Homo sapiens, UniProt Q10471)
T1 construct: gene GALNT2; full coding region, untagged (pH7WG2:GNT2), stably expressed in Nicotiana benthamiana; microsomal fraction; ~65 kDa
Experiment: GalNAc transfer to hCG-beta peptide; RP-HPLC, MALDI-TOF MS, radioactive assay
Type: biochemical
Details: donor with acceptor hCG-beta peptide 113-136 (500 ug in 100 ul); 10 mM MnCl2, 25 mM Tris HCl pH 7.4, 0.25% Triton X-100, 37 C; microsomes; control-plant microsomes as negative control; also 3H-labelle

T1 sequence (Q10471 whole entry): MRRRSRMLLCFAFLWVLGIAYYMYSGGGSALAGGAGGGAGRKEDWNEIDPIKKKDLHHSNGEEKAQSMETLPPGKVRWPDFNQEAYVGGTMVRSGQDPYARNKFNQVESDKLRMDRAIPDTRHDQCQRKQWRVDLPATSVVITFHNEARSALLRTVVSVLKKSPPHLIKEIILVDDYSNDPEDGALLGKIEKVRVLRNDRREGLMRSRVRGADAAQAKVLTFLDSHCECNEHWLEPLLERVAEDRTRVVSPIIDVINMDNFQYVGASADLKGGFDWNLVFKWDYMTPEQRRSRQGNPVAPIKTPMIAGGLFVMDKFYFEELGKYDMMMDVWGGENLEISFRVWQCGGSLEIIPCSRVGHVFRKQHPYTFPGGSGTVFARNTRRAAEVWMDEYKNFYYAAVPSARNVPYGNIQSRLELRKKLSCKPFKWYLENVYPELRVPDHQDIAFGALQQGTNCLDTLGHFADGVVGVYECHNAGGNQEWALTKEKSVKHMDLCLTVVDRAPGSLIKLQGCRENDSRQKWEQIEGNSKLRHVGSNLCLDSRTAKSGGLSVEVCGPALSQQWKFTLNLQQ

Q: With CC(=O)N[C@H]1[C@@H](OP(=O)(O)OP(=O)(O)OC[C@H]2O[C@@H](n3ccc(=O)[nH]c3=O)[C@H](O)[C@@H]2O)O[C@H](CO)[C@H](O)[C@@H]1O [UDP-GalNAc] as the molecule, how does the “GalNAc transfer to hCG-beta peptide; RP-HPLC, MALDI-TOF MS, radioactive assay” value read?
A: plant microsomal fraction as an enzyme source, UDP-GalNAc as the donor
